Experimental data as given in ChEMBL document CHEMBL5500368, “Discovery of novel diaryl substituted isoquinolin-1(2H)-one derivatives as hypoxia-inducible factor-1 signaling inhibitors for the treatment of rheumatoid arthritis” (Eur J Med Chem, 2024).

Columns and labels:
[1] = Cytotoxicity against human MH7A cells
[2] = Inhibition of HIF-1 (unknown origin) expressed in MH7A cells cotransfected with HRE and renilla luciferase assessed as reduction in luminescence signal preincubated for 1 hr under normoxic condition followed by 24 hrs incubation under hypoxic condition by dual luciferase reporter assay; settings: Homo sapiens

COc1ccccc1-c1ccc(C(=O)NCCc2ccccc2F)nc1
CC50 [1]: > 50 µM | IC50 [2]: 4.57 µM

O=c1c2ccc(-c3cccc(O)c3)cc2ccn1CCc1ccccc1
CC50 [1]: > 50 µM | IC50 [2]: 7.39 µM

O=c1c2ccc(-c3ccc(F)cc3)cc2ccn1CCc1ccccc1
CC50 [1]: > 50 µM | IC50 [2]: 6.21 µM

COc1ccccc1-c1ccc2c(=O)n(Cc3ccccc3F)ccc2c1
CC50 [1]: > 50 µM | IC50 [2]: 6.73 µM

COc1ccc(-c2ccc3c(=O)n(CCc4ccccc4)ccc3c2)cc1
CC50 [1]: > 50 µM | IC50 [2]: 2.18 µM

COc1ccc(-c2ccc3c(=O)n(Cc4ccccc4F)ccc3c2)cc1
CC50 [1]: > 50 µM | IC50 [2]: 3.54 µM

O=c1c2ccc(-c3ccoc3)cc2ccn1Cc1ccccc1F
CC50 [1]: > 50 µM | IC50 [2]: 1.46 µM

O=c1c2ccc(-c3ccccc3O)cc2ccn1CCc1ccccc1
CC50 [1]: > 50 µM | IC50 [2]: 0.91 µM

O=c1c2ccc(-c3ccoc3)cc2ccn1Cc1ccccc1
CC50 [1]: > 50 µM | IC50 [2]: 5.92 µM

O=c1c2ccc(-c3ccc(O)cc3)cc2ccn1CCc1ccccc1
CC50 [1]: > 50 µM | IC50 [2]: 0.82 µM

COc1ccccc1-c1ccc2c(=O)n(CCc3ccccc3)ccc2c1
CC50 [1]: > 50 µM | IC50 [2]: 3.31 µM
